Reference: patent US9492497B2, “Peptides for the treatment of cancer” (ÖSTERREICHISCHE AKADEMIE DER WISSENSCHAFTEN, priority 2013, dated 2016)
pIC50: −log10 of the molar value. Entries after “also recorded” stand apart in the source; their conditions may differ. Where two headings read alike, the source gives them in different places. Marks after values point to notes of the source that are not given here. Positions of bridges follow the written chain, without caps; N, C: chain ends. Residues, ends and D or L forms follow the SMILES beside them. No end group written: not given here.

Key:
[1] = system: normal human dermal fibroblasts (NHDF); assay: PI-uptake assay, NHDF; format: cell-based; settings: 8 h
Source text: (§1) Epidermis was separated. […] The pellet was resuspended in melanocyte growth media (Biomedica). […] All cell cultures were periodically checked for mycoplasma.

[2] = system: A375 melanoma cell line; settings: 20 μM peptide, 8 h, PI-uptake
Source text: as §1

[3] = system: U87 mg glioblastoma cell line; settings: 20 μM peptide, 8 h, PI-uptake
Source text: as §1

[4] = system: melanoma cell line SBcl-2; assay: PI-uptake assay, SBcl-2; format: cell-based, human; settings: 8 h; for pIC50: PI-uptake
Protocol: as §1
Cells were incubated in media containing serum for 8 h in the presence of peptides. Peptide concentrations were varied from 10 to 80 μM.

[5] = system: cancer cells (SBcl-2, WM164, TE671); assay: PI-uptake assay, cancer cells pooled; format: cell-based; settings: 20 μM peptide; for cytotoxic activity against cancer cells (killing): up to 8 h
Source text: as §1

[6] = system: cancer cells (SBcl-2, WM164); settings: read-out: IC50 against cancer cells (MTS), 24 h, FIG. 6C
Protocol: as §1
(§2) Cell proliferation was measured by using a CellTiter 96 AQ nonradioactive cell proliferation assay (Promega). Cells were plated in 96-well plates and grown until confluence. Peptides were added to a final concentration of 5-100 μM. After incubation for 24 h at 37° C. (5% CO2) MTS [3-(4,5-dimethylthiazol-2yl)-5-(3-carboxymethoxyphenyl)-2-(4-sulfophenyl)-2H-tetrazolium]-phenozine methosulfate solution (20 μl/well) was added and cells were again incubated for 2 h at 37° C. (5% CO2). The MIS compound is bioreduced by cells into a colored formazan product that is soluble in tissue culture medium. The quantity of the formazan product as measured by the amount of 490 nm absorbance is directly proportional to the number of living cells in culture. Data are calculated as a percentage of the control (untreated) samples and represent the average of three wells in one experiment which was repeated three times per cell line.
(§3) To determine long-time toxicity of peptides, a MTS cell proliferation assay was used to elucidate cell viability upon 24 h incubation with variant peptide concentration and human melanoma cell lines SBcl-2 and WM164 and non-differentiated human skin fibroblast cell line NHDF.

[7] = system: human skin fibroblast cell line NHDF; assay: MTS cell proliferation assay, NHDF; settings: read-out: IC50 Fibroblasts / NHDF (MTS); MTS cell viability assay, 24 h
Protocol: as §1, §2, §3

[8] = system: human red blood cells; assay: Hemolysis; format: cell-based; settings: for % lysis of 2.5% RBCs: one hour, 37° C.; for hemolysis IC50: human red blood cells
Protocol: The hemolytic activity towards human red blood cells (RBCs), which were obtained from heparinized human blood, was determined by the release of hemoglobin following one hour incubation at 37° C. in MHNA (Mueller Hinton cation Non Adjusted). Percentage of hemolysis of RBCs was calculated using 1% Triton as 100% lysis and PBS as 0% lysis, peptide concentration was 500 μg/ml.

[9] = system: non-cancer cells (melanocytes, NHDF); assay: PI-uptake assay, non-cancer cells pooled; settings: 20 μM peptide, up to 8 h
Protocol: The primary human melanoma cell line SBcl2 and the metastatic melanoma WM164 were maintained in RPMI (Sigma) supplemented with 2% FBS, 2% L-glutamine and 1% Pen/Strep. Glioblastoma (U87-mg) purchased from CLS (Cell Line Service Heidelberg, Germany) and Rhabdomyosarcoma cell lines (TE671) purchased from ECAAC (Health Protection Agency Culture Collections Salisbury, UK) are cultured in Dulbecco's Modified Eagle Medium (DMEM) with addition of 2 mM Glutamine, 10% FBS (fetal bovine serum). Melanoma cell line A375 CLS (Cell Line Service Heidelberg, Germany) was cultured in Dulbecco's Modified Eagle Medium (DMEM)(PAA) with addition of 2 mM Glutamine and 10% FBS (fetal bovine serum. Human melanocytes used as healthy control cells: were isolated from the foreskin). The foreskin was cut into small pieces and incubated with 0.3% trypsin (PAA) overnight at 4° C. and for one hour at 37° C. Epidermis was separated. Cells were mechanically removed from the cell layer and centrifuged at 300 g for 3 min. The pellet was resuspended in melanocyte growth media (Biomedica). Melanocytes were further cultured in human melanocytes growth medium (PromoCell GmbH). […]
For detection of PI-uptake by fluorescence spectroscopy experiments were performed according to the following protocol. […]
Cytotoxicity was calculated from the percentage of PI positive cells in media alone (P0) and in the presence of peptide (PX). […]

[10] = system: tumor over non tumor cells; assay: Specificity for tumor over non tumor cells (PI uptake studies); format: cell-based, human; settings: for Cancer Specificity, -fold specificity for melanoma over non tumor skin cells: melanoma (SBcl2 or A375) over melanocytes or NHDF-c, 8 hours, PI uptake
Source text: as §1

[11] = system: melanoma cell line SBcl-2; assay: MTS cell proliferation assay, SBcl-2; settings: 24 h; for pIC50: read-out: IC50 SBcl-2 (MTS), MTS cell viability assay
Protocol: as §1, §2, §3

[12] = system: melanoma metastasis WM164; settings: for pIC50: read-out: IC50 WM164 (MTS), 24 h
Protocol: as §1, §2, §3

[13] = MTS cell proliferation assay, NHDF; settings: human, NHDF (normal human dermal fibroblasts)
Protocol: as §1, §2, §3

[14] = system: human red blood cells; settings: 500 μg/ml peptide; from Zweytick et al., J. Biol. Chem. 286 (2011); cited from earlier work
[15] = system: melanoma metastasis WM164; assay: PI-uptake assay, WM164; format: cell-based, human; settings: 20 μM peptide
Protocol: as §1
(§4) Cells were incubated in media containing serum for 8 h in the presence of peptides. Peptide concentrations were varied from 10 to 80 μM. FIG. 3 illustrates that the peptide moiety PEP-322 is only minor active against the melanoma cell line SBcl-2 with less than 5% killing at a peptide concentration of 80 μM, as well as against melanocytes with a moderate two-fold selectivity for WM164 cells at 20 μM peptide concentration (FIG. 3C).

[16] = system: differentiated non-tumorigenic melanocytes; assay: PI-uptake assay, melanocytes; format: cell-based, human; settings: 20 μM peptide, 8 h
Protocol: as §1, §4

[17] = system: caspase-3/7 activity of melanoma cell line SBcl-2; assay: Spectrofluorimetric analysis of caspase-3/7 activity; format: cell-based, human; settings: SBcl-2, 10-20 μM peptide, 4 hours
Protocol: Spectrofluorimetric analysis of caspase-3/7 activity 5×10^5 cells/ml were seeded into 96-well plate and grown overnight at 37° C. and 5% CO2. Cells were incubated with different concentrations of peptide for 4 hours. Apo-ONE® caspase-3/7 reagent was added in a 1:1 volume ratio and cells were incubated for 4 hours. Cells were then analyzed by fluorescence spectroscopy (GloMax®-Multi+ Microplate Multimode Reader with Instinc™). Untreated cells were used as negative control. Analysis was performed with Apo-ONE® Homogeneous Caspase-3/7 Assay (see FIG. 7).

[18] = Tryptophan fluorescence and quenching, cancer mimic; settings: in presence of target lipid PS
Protocol: (§5) Tryptophan fluorescence spectra were obtained at room temperature using an excitation wavelength of 282 nm and a slit width of 5 nm for excitation and emission monochromators. Quenching of Tryptophan was carried out in the presence and absence of phospholipid liposomes (lipid to peptide ratio 25:1) using 0.1, 0.4 and 0.7 M acrylamide. The data were analyzed according to the Stern-Volmer equation: F0/F=1+KSV[Q] where F0 and F represent the fluorescence emission intensities in the absence and presence of the quencher molecule (Q) and KSV is the Stern-Volmer quenching constant, which is a quantitative measure for the accessibility of tryptophan to acrylamide (Tao, T. and Cho, J. Biochemistry 18(1979), 2759-2765).

[19] = Tryptophan fluorescence and quenching, healthy mimic; settings: in presence of PC
Protocol: as §5

CC[C@H](C)[C@H](NC(=O)[C@@H]1CSSC[C@H](NC(=O)[C@H](CCCCN)NC(=O)[C@@H](N)[C@@H](C)O)C(=O)N[C@@H](Cc2ccccc2)C(=O)N[C@@H](CCC(N)=O)C(=O)N[C@@H](Cc2c[nH]c3ccccc23)C(=O)N[C@@H](CCC(N)=O)C(=O)N[C@@H](CCCNC(=N)N)C(=O)N[C@@H](CC(N)=O)C(=O)N[C@@H](CCSC)C(=O)N[C@@H](CCCNC(=N)N)C(=O)N[C@@H](CCCCN)C(=O)N[C@@H](C(C)C)C(=O)N[C@@H](CCCNC(=N)N)C(=O)NCC(=O)N2CCC[C@H]2C(=O)N2CCC[C@H]2C(=O)N[C@@H](C(C)C)C(=O)N[C@@H](CO)C(=O)N1)C(=O)N[C@@H](CCCCN)C(=O)N[C@@H](CCCNC(=N)N)C(=O)N[C@@H](CC(=O)O)C(=O)N[C@@H](CO)C(=O)O [hLFcin (37-61)] (H-TKCFQWQRNMRKVRGPPVSCIKRDS-OH; disulfide 3-20)
toxicity against normal human dermal fibroblasts NHDF-c [1]: no toxicity
cytotoxicity against melanoma cell line A375 [2]: only weak activity
cytotoxicity against glioblastoma cell line U87 mg [3]: only weak activity

FWQRRIRRWRRFWQRRIRRWRR-NH2 [DIM-PEP-318]
pIC50 [4]: > 4.70
pIC50 [1]: > 4.70
cytotoxic activity against cancer cells (killing) [5]: up to 90%
pIC50 [6]: > 5.00
pIC50 [7]: 5.00
hemolytic activity (in words) ([8]; 500 μg/ml peptide, 2.5% red blood cells): not hemolytic
% lysis of 2.5% RBCs ([8]; 500 μg/ml peptide): 2.87 ± 0.57%
hemolysis IC50 [8]: >500 µg/mL
non-cancer toxicity (melanocytes, NHDF) [9]: highly active

PFFWRIRIRRPFFWRIRIRR-NH2 [DIM-PEP-324]
activity and selectivity for cancer cells (in words) [10]: selective for cancer cells
Cancer Specificity, -fold specificity for melanoma over non tumor skin cells ([10]; 20 μM peptide): yes (7fold) (DIM-),

PFWRIRIRR PFWRIRIRR (PFWRIRIRRPFWRIRIRR) [DIM-PEP-322]
activity and selectivity for cancer cells (in words) [10]: selective for cancer cells
Cancer Specificity, -fold specificity for melanoma over non tumor skin cells ([10]; 20 μM peptide): yes (50fold)

PFWRIRIRR RRIRIRWFP (PFWRIRIRRRRIRIRWFP) [R-DIM-PEP-322]
time to highest activity against cancer cells [5]: ≥ 8 h
activity and selectivity for cancer cells (in words) [10]: selective for cancer cells
Cancer Specificity, -fold specificity for melanoma over non tumor skin cells ([10]; 20 μM peptide): (DIM-), 20fold

PFWRIRIRR-NH2 [PEP-322, PFWRIRIRR-NH2]
pIC50 [4]: < 4.10
pIC50 [1]: < 4.10
cell viability SBcl-2 ([11]; 100 μM peptide, MTS): 40%
pIC50 [11]: 4.05
cell viability WM164 ([12]; 100 μM peptide, 24 h, MTS): more than 70%
pIC50 [12]: < 4.00
viability at 24 h, 100 μM [13]: > 70%
pIC50 [7]: < 4.00
% lysis of 2.5% RBCs [14]: 2^b %

PFWRIRIRRD DRRIRIRWFP (PFWRIRIRRDDRRIRIRWFP) [R-DIM-PEP-323]
activity and selectivity for cancer cells (in words) [10]: selective for cancer cells

PFWRIRIRRPRRIRIRWFP-NH2 [R-DIM-P-PEP-322, PFWRIRIRRPRRIRIRWFP-NH2]
PI positive SBcl-2 cells ([4]; 20 μM peptide): more than 80%
sensitivity of WM164 for the peptide [15]: highly sensitive
melanocytes killed [16]: less than 1%
pIC50 [1]: < 4.10
time to highest activity against cancer cells [5]: 4 to 8 h
cytotoxic activity against cancer cells (killing) [5]: up to 80%
activity and selectivity for cancer cells (in words) [10]: cancer active and specific; also recorded: selective for cancer cells
specificity for cancer cells (PI-uptake ratio SBcl-2 vs. melanocytes) ([10]; 20 μM peptide, 8 h): more than 100 fold
Cancer Specificity, -fold specificity for melanoma over non tumor skin cells ([10]; 20 μM peptide): (R-DIM-), >100fold)
pIC50 [11]: 5.10
pIC50 [12]: 4.82
pIC50 [7]: 4.10
% lysis of 2.5% RBCs ([8]; 500 μg/ml peptide): 0.84 ± 0.63%
hemolysis IC50 [8]: >500 µg/mL
increase of green fluorescence (caspase-3/7 activity) [17]: 200 fold
blue shift of Trp emission wavelength, PS [18]: blue shift is only detected in presence of the target lipid PS
blue shift of Trp emission wavelength, PC [19]: no blue shift appears

PFWRRRIRIRR RRIRIRRRWFP (PFWRRRIRIRRRRIRIRRRWFP) [R-DIM-PEP-337]
activity and selectivity for cancer cells (in words) [10]: less specific
Cancer Specificity, -fold specificity for melanoma over non tumor skin cells ([10]; 20 μM peptide): (2fold) (R-DIM-)

RWKRINRQWFFWQRNIRKWR-NH2 [R-DIM-PEP-316]
activity and selectivity for cancer cells (in words) [10]: specific; also recorded: selective for cancer cells
Cancer Specificity, -fold specificity for melanoma over non tumor skin cells ([10]; 20 μM peptide): Yes (15fold) (R-DIM-)
